For one assay, the system named is BT474 cells. The assay can be described thus: E2-ERα-dependent growth of BT474 cells (MTS). In kind it is cell-based. The following applies: Homo sapiens, BT-474, 96 h, 100 pM E2, 4 days, read-out: IC50 for inhibition of E2-ERα-dependent growth of BT474 cells. Here is the method:
(§1) FIG. 20 illustrates further activity of TPSF in the inhibition of tamoxifen-resistant human breast cancer cells. The effects of TPSF on the E2-ERα-dependent growth of tamoxifen-resistant BT474 and ZR-75 cells were assessed. […] The cells were maintained in medium containing 10% CD-FBS (ZR-75) or 10% CD-CS (BT474) containing or lacking 100 pM E2 and the indicated concentrations of TPSF. Viable cells were measured by comparison to a standard curve of cell number versus absorbance using the MTS assay. Data represents the average of at least 4 wells. IC50 values for TPSF inhibition of cell growth were calculated by curve-fitting using Sigma Plot.
(§2) Assays for Cell Growth and Viability. Cells were maintained in the media listed above containing CD-treated serum for at least 4 days prior to the experiment. To minimize cell aggregation, MCF-7 cells were harvested in 10 mM Hepes, pH 7.4, 1 mM EDTA. Other cell lines were harvested in trypsin-EDTA. 1,000 cells were plated into each well of a 96 well plate. For slow growing ZR-75 cells, 2,000 cells were plated/well. The cells were maintained in medium containing CD-treated serum for 24 hours. At 24 hours the medium was changed and E2 and DMSO vehicle or TPSF in DMSO was added. […] After 4 days viable cells were determined using a cell viability test, Promega CellTiter 96 Aqueous One Solution Cell Proliferation Assay (MTS) (Promega, Wis.).

In assay [1] the target is T1, ERα (Homo sapiens, UniProt P03372).
T1 sequence (P03372 1-595): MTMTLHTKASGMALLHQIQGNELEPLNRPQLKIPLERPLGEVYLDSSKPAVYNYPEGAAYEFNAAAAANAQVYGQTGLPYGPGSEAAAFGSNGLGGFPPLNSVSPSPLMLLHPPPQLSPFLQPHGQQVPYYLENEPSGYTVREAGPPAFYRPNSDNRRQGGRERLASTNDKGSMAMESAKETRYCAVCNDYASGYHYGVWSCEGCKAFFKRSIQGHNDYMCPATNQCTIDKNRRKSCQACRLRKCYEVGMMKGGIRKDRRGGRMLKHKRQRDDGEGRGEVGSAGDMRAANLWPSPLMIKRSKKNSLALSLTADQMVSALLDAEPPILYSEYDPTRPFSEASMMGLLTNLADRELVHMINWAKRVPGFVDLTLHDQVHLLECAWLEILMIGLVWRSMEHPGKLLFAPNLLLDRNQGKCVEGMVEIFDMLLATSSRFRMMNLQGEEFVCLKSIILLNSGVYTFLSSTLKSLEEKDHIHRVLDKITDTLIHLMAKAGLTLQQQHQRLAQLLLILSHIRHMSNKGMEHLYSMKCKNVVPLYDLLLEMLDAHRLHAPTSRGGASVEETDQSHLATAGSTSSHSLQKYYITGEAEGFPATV
The assay can be described thus: Estrogen induction of cyclin D1 mRNA in MCF-7 cells. In kind it is cell-based. Further details: endogenous in cells. The following applies: 10 μM, 10 nM E2, 24 h. Here is the method: FIG. 15 illustrates results of testing for inhibition of the estrogen induction of Cyclin D1 mRNA. MCF-7 cells were plated and 24 h later treated with ethanol vehicle, 10 nM E2, or 10 nM E2 and 10 μM TPSF. Cells were maintained for 24 hours, RNA was extracted and cyclin D1 mRNA levels were measured by qRT-PCR. Cyclin D1 mRNA levels in the vehicle only sample were set to 1. Data is the average±SEM for 3 experiments each assayed in triplicate.
(§3) Endogenous Gene Expression. MCF-7 cells or MCF7ERαHA cells were maintained for 4 days in medium containing 5% CD calf serum (MCF-7 cells) or 10% 6×CD-FBS (MCF7ERαHA cells). In assays of TPSF inhibition of PI-9 induction, cells were plated, incubated for 24 hours in the indicated concentrations of TPSF and then maintained 4 hours with and without E2, with and without TPSF. To induce ERα, MCF7ERαHA cells were also maintained in 0.5 μg/ml Dox for 24 hours prior to addition of E2 or OHT with or without TPSF. For induction of cyclin D1, 24 hours after plating the cells, E2 with and without TPSF was added, the cells were maintained for 24 hours, RNA was extracted and mRNA levels were determined by quantitative RT-PCR as described (19, 26). Actin mRNA levels were used as the qRT-PCR internal standard. The primers and sequences used in qRT-PCR were as follows.

The next assay concerns MCF7ERαHA cells. Briefly: Growth of tamoxifen-resistant MCF7ERαHA cells (MTS). The assay is classed as cell-based, human. The conditions noted are these: 5 μM, Dox, 1 pM E2, 4 days. Here is the method: FIG. 19 illustrates that TPSF, but not OHT, is capable of inhibiting E2-ERα-dependent growth of tamoxifen-resistant breast cancer cells as measured in MCF7ERαHA cells. MCF7ERαHA cells were maintained for 4 days in 6× stripped CD-FBS, seeded into 12 well plates containing or lacking Dox (0.5 μg/ml), E2 (1 pM) OHT (5 μM) and TPSF (5 μM), grown for 4 days and assayed using MTS with a standard curve for cell number. Cells in ethanol and DMSO vehicle alone were set to 100%. Data represents the average of 3 experiments±SEM. The difference between the cells incubated with TPSF+E2+Dox compared to the cells in Dox, and E2 and to the cells in Dox, E2 and OHT was significant (P<0.05 using Student's two-tailed T test).
as §2, with “hours.” for “hours. At 24 hours the medium was changed and E2 and DMSO vehicle or TPSF in DMSO was added.”

In another assay the test system is MCF-7 cells. Briefly: E2-dependent growth of MCF-7 cells (MTS). The assay is classed as cell-based, human. Here is the method: Assays for Cell Growth and Viability. Cells were maintained in the media listed above containing CD-treated serum for at least 4 days prior to the experiment. To minimize cell aggregation, MCF-7 cells were harvested in 10 mM Hepes, pH 7.4, 1 mM EDTA. Other cell lines were harvested in trypsin-EDTA. 1,000 cells were plated into each well of a 96 well plate. For slow growing ZR-75 cells, 2,000 cells were plated/well. The cells were maintained in medium containing CD-treated serum for 24 hours. At 24 hours the medium was changed and E2 and DMSO vehicle or TPSF in DMSO was added. The medium was replaced after 2 days (except for BT474 cells whose medium was not changed). After 4 days viable cells were determined using a cell viability test, Promega CellTiter 96 Aqueous One Solution Cell Proliferation Assay (MTS) (Promega, Wis.).

A further assay deals with ZR-75 cells. The assay can be described thus: E2-ERα-dependent growth of ZR-75 cells (MTS). The assay is classed as cell-based. The following applies: Homo sapiens, ZR75, 96 h, 100 pM E2, 4 days, read-out: IC50 for inhibition of E2-ERα-dependent growth of ZR-75 cells. Here is the method: as §1, §2
In assay [2] the target is T1, ERα. Briefly: Endogenous PI-9 mRNA induction in MCF-7 cells (qRT-PCR). The assay is classed as cell-based. The conditions noted are these: 10 nM E2, read-out: IC50 for inhibition of E2-ERα induction of endogenous PI-9 mRNA (Endog. PI-9). On the set-up: endogenous in cells. As to the method: as §3
(In general: Quantitative PCR measures a nucleic acid by following its amplification.)

Molecules are shown by their SMILES. Entries after “also recorded” stand apart in the source; their conditions may differ.

One may read the IC50 as the concentration needed to halve the response being measured.

For `Cn1c(=S)c2[nH]c(SCCCC(=O)c3ccc(F)cc3)nc2n(C)c1=O` [TPSF, Butyrophenone, p-fluoro-4-(1,2,3,6,-tetrahydro-1,3-dimethyl-2-oxo-6-thionopurin-8-ylthio)], the IC50 in the assay with BT474 cells came out at 1.6 µM; with MCF-7 cells (Homo sapiens, MCF7, 96 h, 1 pM E2, 4 days, MTS, read-out: IC50 for inhibition of E2-dependent growth of MCF-7 cells) it was 2 µM; in the assay with ZR-75 cells it was 0.9 µM; on ERα [2], 0.2 µM. Moreover, at ERα [1], the “effect on E2 induction of cyclin D1 mRNA” value is on record as “completely inhibited; also recorded: abolished”. Moreover, the “effect on E2-ERα-dependent growth of MCF7ERαHA cells” value in the assay on MCF7ERαHA cells is “inhibited”. In addition, the “effect on E2-dependent growth of MCF-7 cells” value with MCF-7 cells (7.5 μM) is “completely blocked”.

Source of the values: patent publication US8871751B2, “Compositions and methods relating to nuclear hormone and steroid hormone receptors including inhibitors of estrogen receptor alpha-mediated gene expression and inhibition of breast cancer” (The Board of Trustees of the University of Illinois, priority 2008, dated 2014).
